Columns and labels:
Test in all cases: Inhibition of c-Kit, PDGFRα, PDGFRβ, CSFIR and FLT3 Kinase Activity Assay
[1] = molecular target: Platelet-derived growth factor receptor alpha (Homo sapiens, UniProt P16234)
Experimental: (§1) On the day of the assay, compounds were solubilized in DMSO and dispensed into a 384-well white Opti-plate (PerkinElmer, catalog #6007290) to generate a 22 point 1:2 titration. Enzyme solution was prepared for each of the tyrosine kinases in 50 mM HEPES, pH 7.4, 5 mM MgCl2 for c-Kit or 10 mM MgCl2 for FLT3, CSFIR, PDGFRa and PDGFRβ, 2 mM MnCl2, 0.01% Brij-35 and 0.01% BSA. Working enzyme concentrations were prepared for c-Kit at 2 nM (2×), PDGFRa and PDGFR at 10 nM (2×), CSFIR at 2 nM (2×) and FLT3 at 0.4 nM (2×). Five microliters of enzyme dilution of each tyrosine kinase were added to their respective 384-well white Opti-plate pre-dispensed with compound and allowed to incubate for 1 h at rt. Utilizing the same enzyme buffer recipe, 2x substrate mixes were prepared for each enzyme as follows: For c-Kit, 1.6 μM (2×) TK substrate and 16 μM (2×) ATP (Promega, catalog #V915). For PDGFRα, 3.2 μM TK substrate and 1 μM ATP. For PDGFRβ, 3.2 μM TK substrate and 40 μM ATP. For CSFIR, […] TK substrate and 20 μM ATP. For FLT3, 3.2 μM TK substrate and 100 μM ATP. Reactions were initiated by addition of 5 μL of the respective 2x substrate mix to each well of the plates containing the respective tyrosine kinase enzymes and were allowed to proceed for 120 minutes at rt, except for FLT3, the reaction time is 45 min. Following the reaction, 10 μL of detection mix consisting of 0.2 μM (2×) of Streptavidin-XL665 and 2 μM (2×) of TK-Antibody-Cryptate prepared in detection buffer (Part 62SDBRDF of KinEASE assay kit) was added and then allowed to incubate for 60 min. The TR-FRET signal was quantified by measuring the ratio of emission at 665 nm to 620 nm after excitation at 320 nm by reading on a PerkinElmer Envision multimode reader. Compound potencies (IC50 values) were determined using a standard 4-parameter non-linear regression fit.

[2] = molecular target: Platelet-derived growth factor receptor beta (Homo sapiens, UniProt P09619)
Experimental: as §1

[3] = molecular target: Macrophage colony-stimulating factor 1 receptor (Homo sapiens, UniProt P07333)
Experimental: as §1

[4] = molecular target: Mast/stem cell growth factor receptor Kit (Homo sapiens, UniProt P10721)
Experimental: as §1

Chain of Macrophage colony-stimulating factor 1 receptor (P07333 whole entry): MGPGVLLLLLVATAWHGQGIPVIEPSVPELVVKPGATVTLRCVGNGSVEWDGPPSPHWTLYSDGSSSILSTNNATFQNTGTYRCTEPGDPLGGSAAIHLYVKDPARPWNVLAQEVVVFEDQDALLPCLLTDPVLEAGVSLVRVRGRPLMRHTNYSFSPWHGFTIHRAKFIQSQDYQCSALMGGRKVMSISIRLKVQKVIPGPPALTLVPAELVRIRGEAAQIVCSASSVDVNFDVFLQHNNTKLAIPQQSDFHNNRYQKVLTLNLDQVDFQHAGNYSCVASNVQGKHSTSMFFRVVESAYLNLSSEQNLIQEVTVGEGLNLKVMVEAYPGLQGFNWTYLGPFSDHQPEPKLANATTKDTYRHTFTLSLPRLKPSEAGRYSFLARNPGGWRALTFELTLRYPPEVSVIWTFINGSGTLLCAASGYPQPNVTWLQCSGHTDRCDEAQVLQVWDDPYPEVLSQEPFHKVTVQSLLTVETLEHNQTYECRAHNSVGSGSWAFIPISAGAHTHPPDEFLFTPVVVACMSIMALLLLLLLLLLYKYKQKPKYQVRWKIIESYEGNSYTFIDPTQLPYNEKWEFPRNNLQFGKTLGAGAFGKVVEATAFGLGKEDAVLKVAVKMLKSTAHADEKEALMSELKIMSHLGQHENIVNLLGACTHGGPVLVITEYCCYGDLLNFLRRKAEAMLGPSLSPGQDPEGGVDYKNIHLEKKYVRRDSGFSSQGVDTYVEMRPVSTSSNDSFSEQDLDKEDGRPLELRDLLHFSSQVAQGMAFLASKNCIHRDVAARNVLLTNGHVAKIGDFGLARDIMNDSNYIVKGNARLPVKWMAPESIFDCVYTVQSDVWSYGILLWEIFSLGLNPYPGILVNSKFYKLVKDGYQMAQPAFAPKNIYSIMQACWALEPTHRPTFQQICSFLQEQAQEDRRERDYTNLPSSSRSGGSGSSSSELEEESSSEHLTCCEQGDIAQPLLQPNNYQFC
Chain of Platelet-derived growth factor receptor beta (P09619 whole entry): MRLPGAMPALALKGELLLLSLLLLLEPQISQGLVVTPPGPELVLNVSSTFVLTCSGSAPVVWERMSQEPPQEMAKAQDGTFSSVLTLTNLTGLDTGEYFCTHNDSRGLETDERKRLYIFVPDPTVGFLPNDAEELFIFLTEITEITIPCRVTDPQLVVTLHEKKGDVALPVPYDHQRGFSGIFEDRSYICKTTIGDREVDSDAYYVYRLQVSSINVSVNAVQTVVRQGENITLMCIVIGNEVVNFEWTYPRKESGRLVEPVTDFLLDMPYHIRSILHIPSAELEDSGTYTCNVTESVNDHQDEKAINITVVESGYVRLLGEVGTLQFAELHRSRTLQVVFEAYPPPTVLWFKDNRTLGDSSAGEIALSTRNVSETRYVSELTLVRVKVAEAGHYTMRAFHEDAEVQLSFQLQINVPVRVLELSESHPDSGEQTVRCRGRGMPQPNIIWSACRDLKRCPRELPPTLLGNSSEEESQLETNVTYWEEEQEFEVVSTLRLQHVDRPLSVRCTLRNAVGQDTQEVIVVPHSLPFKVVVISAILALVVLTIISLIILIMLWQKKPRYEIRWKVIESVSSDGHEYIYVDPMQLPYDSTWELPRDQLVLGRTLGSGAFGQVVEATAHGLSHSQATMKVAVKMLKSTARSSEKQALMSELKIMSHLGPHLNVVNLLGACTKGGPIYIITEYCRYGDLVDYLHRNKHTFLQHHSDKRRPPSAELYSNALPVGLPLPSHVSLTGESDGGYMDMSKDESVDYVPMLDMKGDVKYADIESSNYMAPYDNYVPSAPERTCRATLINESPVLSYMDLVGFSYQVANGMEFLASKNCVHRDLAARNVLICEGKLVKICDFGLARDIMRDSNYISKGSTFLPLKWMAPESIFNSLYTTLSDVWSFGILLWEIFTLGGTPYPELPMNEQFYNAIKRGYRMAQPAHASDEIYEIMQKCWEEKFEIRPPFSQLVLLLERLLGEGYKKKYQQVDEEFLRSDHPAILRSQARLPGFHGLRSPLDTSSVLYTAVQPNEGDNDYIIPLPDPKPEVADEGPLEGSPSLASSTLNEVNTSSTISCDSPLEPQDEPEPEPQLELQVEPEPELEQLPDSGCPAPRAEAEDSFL
Chain of Platelet-derived growth factor receptor alpha (P16234 whole entry): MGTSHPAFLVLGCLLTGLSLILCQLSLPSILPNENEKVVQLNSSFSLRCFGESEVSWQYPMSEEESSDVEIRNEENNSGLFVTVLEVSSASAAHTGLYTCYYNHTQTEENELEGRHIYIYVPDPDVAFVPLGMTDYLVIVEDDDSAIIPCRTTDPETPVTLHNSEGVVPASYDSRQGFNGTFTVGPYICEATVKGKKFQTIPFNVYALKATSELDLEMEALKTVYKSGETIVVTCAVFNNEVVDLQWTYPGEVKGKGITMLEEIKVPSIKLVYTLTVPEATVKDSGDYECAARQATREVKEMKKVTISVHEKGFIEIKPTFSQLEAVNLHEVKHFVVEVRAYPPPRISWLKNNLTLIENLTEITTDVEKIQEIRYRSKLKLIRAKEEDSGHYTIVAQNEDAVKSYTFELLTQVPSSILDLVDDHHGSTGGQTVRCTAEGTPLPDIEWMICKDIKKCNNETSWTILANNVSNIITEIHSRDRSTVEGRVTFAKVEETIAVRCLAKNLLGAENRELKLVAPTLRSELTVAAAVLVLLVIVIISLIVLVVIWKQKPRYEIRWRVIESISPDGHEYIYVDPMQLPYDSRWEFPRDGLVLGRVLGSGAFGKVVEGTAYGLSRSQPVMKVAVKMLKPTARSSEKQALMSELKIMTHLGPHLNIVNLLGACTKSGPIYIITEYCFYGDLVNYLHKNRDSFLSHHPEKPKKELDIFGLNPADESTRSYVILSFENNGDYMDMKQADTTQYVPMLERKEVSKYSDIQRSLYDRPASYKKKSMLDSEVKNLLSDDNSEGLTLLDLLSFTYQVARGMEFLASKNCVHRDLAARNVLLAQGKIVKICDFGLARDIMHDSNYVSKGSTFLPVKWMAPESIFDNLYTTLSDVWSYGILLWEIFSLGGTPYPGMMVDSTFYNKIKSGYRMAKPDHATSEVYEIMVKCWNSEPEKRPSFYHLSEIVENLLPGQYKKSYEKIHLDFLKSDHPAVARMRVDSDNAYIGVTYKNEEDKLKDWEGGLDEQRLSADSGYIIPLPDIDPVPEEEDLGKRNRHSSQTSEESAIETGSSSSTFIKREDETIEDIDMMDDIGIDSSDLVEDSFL
Chain of Mast/stem cell growth factor receptor Kit (P10721 whole entry): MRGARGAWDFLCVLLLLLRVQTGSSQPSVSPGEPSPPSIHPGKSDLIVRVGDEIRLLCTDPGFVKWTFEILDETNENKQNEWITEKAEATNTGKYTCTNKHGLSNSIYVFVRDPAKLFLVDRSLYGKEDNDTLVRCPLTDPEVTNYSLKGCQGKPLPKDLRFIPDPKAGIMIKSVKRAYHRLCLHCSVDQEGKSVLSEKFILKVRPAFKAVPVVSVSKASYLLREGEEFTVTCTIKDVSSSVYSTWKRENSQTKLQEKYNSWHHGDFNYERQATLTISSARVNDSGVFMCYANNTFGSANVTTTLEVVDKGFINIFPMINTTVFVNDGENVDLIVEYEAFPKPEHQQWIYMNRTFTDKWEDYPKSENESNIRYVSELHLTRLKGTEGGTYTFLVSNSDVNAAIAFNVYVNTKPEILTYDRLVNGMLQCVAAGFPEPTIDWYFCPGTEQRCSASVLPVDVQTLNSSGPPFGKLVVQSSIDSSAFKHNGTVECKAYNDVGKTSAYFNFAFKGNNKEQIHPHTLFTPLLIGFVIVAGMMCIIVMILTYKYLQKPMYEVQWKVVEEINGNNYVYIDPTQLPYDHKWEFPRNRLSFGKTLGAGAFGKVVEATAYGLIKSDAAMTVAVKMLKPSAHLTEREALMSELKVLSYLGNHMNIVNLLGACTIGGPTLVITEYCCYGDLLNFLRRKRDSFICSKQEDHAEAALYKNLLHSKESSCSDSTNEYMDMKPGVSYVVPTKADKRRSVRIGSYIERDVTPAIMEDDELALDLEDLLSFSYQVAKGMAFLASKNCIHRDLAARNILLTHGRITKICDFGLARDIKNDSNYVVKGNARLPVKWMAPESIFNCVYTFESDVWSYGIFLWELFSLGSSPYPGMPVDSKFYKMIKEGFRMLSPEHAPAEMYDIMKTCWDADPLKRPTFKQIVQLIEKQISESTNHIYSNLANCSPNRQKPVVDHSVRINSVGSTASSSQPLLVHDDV

IC50 [1]	IC50 [2]	IC50 [3]	IC50 [4]	Structure (SMILES)
> 1000 nM	> 1000 nM	> 1000 nM		Cc1ncc(C(=O)Nc2cc(C(=O)NCc3cccnc3)c(F)cc2C)s1 [US20250145606, Example 12]
> 1000 nM	> 1000 nM	> 1000 nM	< 100 nM	Cc1cc(F)c(C(=O)Nc2cn[nH]c2)cc1NC(=O)c1cnc(N)s1 [US20250145606, Example 157]

Source: BindingDB's records for patent US20250145606 (Arcus Biosciences, 2025)
